Data published in article PMC5608908, “Novel scaffolds for inhibition of Cruzipain identified from high-throughput screening of anti-kinetoplastid chemical boxes” (Scientific Reports, 2017).

How the values were obtained:
Cruzipain [1] = target: T1, Cruzipain (Trypanosoma cruzi, UniProt P25779); experiment: biochemical; conditions: Cruzipain 11.6 nM; for IC50: Z-FR-AMC 2 μM, pH 5.5, 30 °C, 15 min preincubation, four-parameter Hill fit; for Hill Slope: four-parameter Hill fit of dose-response curve
T1 construct: Cruzipain (CZP) was purified to homogeneity from epimastigotes of the Tul 2 strain; from tissue; host or cells: Trypanosoma cruzi epimastigotes, Tul 2 strain (natural enzyme, not recombinant)
T1 sequence (P25779 123-467): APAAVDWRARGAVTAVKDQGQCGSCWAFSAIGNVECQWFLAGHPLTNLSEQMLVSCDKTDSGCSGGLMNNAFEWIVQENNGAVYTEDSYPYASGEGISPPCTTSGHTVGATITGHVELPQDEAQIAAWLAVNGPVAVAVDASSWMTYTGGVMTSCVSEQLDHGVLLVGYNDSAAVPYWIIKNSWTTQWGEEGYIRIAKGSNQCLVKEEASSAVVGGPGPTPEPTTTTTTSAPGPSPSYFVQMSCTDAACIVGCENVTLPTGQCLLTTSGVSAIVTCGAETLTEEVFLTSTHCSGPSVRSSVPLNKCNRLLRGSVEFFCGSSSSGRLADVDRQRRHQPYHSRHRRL

Cruzipain [2] = target: T1, Cruzipain; assay type: biochemical; conditions: for Hit call by statistically robust cutoff (µC+ − 3 × SDC+): compound 25 µM, singlet
Method: (§1) Assay was performed in a solid black 384-well plate (final reaction volume ~80 μL) and the release of 7-amino-4-methylcoumarin was monitored continuously at 30 °C with a Beckman Coulter DTX 880 Multimode Reader (Radnor, Pennsylvania, USA) using standard 340 nm excitation and 450 nm emission filter set. Final substrate concentration was set to 2 μM to match previously reported conditions[31] and being close to the KM value for this substrate. Optimal Cruzipain assay concentration (5.8 nM) was selected from 2-fold serial dilutions to match three criteria: (i) being linearly proportional to V0, (ii) display robust signal evolution at 2 μM substrate concentration and (iii) display linear kinetics for enough time to perform several reading cycles (at least 10 cycles, minimum time between cycles: 264 sec) through the 384-wells. In all cases, E-64(final concentration 125 nM) was used as positive inhibition control.
To perform the high-throughput screening, 1 μL of each compound (2 mM in DMSO), E-64 (10 μM in DMSO) or DMSO (negative controls) were dispensed into 384-well Corning black solid-bottom assay plates. Then, 40 μL of 100 mM NaAc, 5 mM DTT, 0.01% Triton X-100 pH 5.5 containing Cruzipain (11,6 nM) were added to each well, plates were homogenized (30 seg, orbital, medium intensity) and each well subjected to a single autofluorescence read (exc/ems = 340/450 nm). Plates were incubated in darkness for 15 min at 30 °C and then 40 μL of Z-FR-AMC (4 μM) in assay buffer were added to each well to start the reaction. After homogenization (30 seg, orbital, medium intensity), the fluorescence of AMC (exc/ems = 340/450 nm) was acquired kinetically for each well (12 read cycles, one cycle every 300 seconds).
Raw screening measurements were used to determine the slope (dF/dt) of progression curves by linear regression for control and compound wells. In the case of control-dependent hit selection criterium, percent inhibition (%Inh) was calculated for each compound according to Eq. 6:6 %Inh=100⋅[1−(dF/dt^WELL−µ^C−)/(µ^C+−µ^C−)] where dF/dt^WELL represents the slope of each compound well and µ^C+ and µ^C− the average of Cruzipain (no-inhibition) and substrate (no-enzyme) controls, respectively.

Cruzipain [3] = target: T1, Cruzipain; assay type: biochemical; conditions: for Behavior of dose-response curve: compound 62.5 µM – 7.5 pM; for Ki (tight-binding, suggested from IC50 in the order of the enzyme concentration): estimate from IC50 values
Method: as §1
To avoid any positional and/or association bias, we randomly defined the row position for each compound. One μL of compounds stock (10 mM in DMSO) and E-64 (10 mM in DMSO) were added to the first well of column 1, followed by addition of 40 μL of 100 mM NaAc, 5 mM DTT, 0.01% Triton X-100 pH 5.5 buffer. After addition of 20 μL of the same buffer to subsequent wells of the plate, 22 serial 2-fold dilutions were made horizontally. The last two positions of every row were used, alternatively, for C^+ and C^− controls to reduce any positional and/or association bias. Then, 20 μL of activity buffer containing Cruzipain ([…]) were added to each well, except for those corresponding to C^−; completed with 20 μL of activity buffer. After homogenization, 15 minutes of incubation at 30 °C and autofluorescence measurement, 40 μL of a 4 μM solution of Z-FR-AMC substrate (in activity buffer) was added to the previous mix. Data collection and processing were performed exactly as described above. Percentage of Cruzipain residual activity was calculated for each condition according to Eq. 7:7 %Res.Act.^CRUZIPAIN=100⋅[(dF/dt^WELL−µ^C−)/(µ^C+−µ^C−)] where dF/dt^WELL represents the slope of each compound well and µ^C+ and µ^C− the average of Cruzipain (no-inhibition) and substrate (no-enzyme) controls, respectively. The IC50 and Hill slope parameters for each compound were estimated by fitting the four-parameter Hill equation to experimental data from dose-response curves using the GraphPad Prism program (version 5.03).

Cruzipain [4] = target: T1, Cruzipain; assay type: biochemical; conditions: E-64 1 nM, Cruzipain 5.8 nM, 24 replicates
Method: as §1, with “In all cases, E-64(final concentration 125 nM) was used as positive inhibition control.” left out

[5] = test system: T. cruzi intracellular amastigotes; set-up: method as in PMID 25740547; conditions: T. cruzi intracellular amastigotes vs T. brucei axenic bloodstream forms; cited from earlier work
T. cruzi = test system: T. cruzi; set-up: method as in PMID 9705954, PMID 17698625, PMID 16304193; conditions: immunocompetent and immunodeficient mice, dogs; cited from earlier work

Row | Structure (SMILES) | IC50 (Cruzipain [1]) [µM] | Hill Slope (Cruzipain [1]) | Hit call by statistically robust cutoff (µC+ − 3 × SDC+) (Cruzipain [2]) | also measured
1 | NCC(Cc1ccccc1)NC(=O)c1cnc(-c2c[nH]c3ncccc23)s1.O=C(O)C(F)(F)F.O=C(O)C(F)(F)F (stereo not shown) [TCMDC-143176] | – | – | – | Behavior of dose-response curve (Cruzipain [3]): activation phenotype at highest concentrations
2 | COc1ccc(OC)c(S(=O)(=O)N(Cc2c(F)cccc2F)C2CCN(C#N)C2)c1 (stereo not shown) [TCMDC-143370] | 5650 | −0,7542 | – | IC50 range against Cruzipain, in words (Cruzipain [3]): low micromolar range
3 | Cl.Cl.O=c1ccc2ccc(F)c3c2n1C[C@H]3CN1CCN(CC(O)c2cc3c(cn2)OCS3)CC1 (stereo partly shown) [TCMDC-143158] | – | – | positive hits | –
4 | CC(C)C[C@H](NC(=O)[C@H]1O[C@@H]1C(=O)O)C(=O)NCCCCN=C(N)N (relative stereo) [Compound E-64, trans-epoxysuccinyl-L-leucylamido-(4-guanidino)butane, reference compound] | – | – | – | average inhibition with respect to Cruzipain control (Cruzipain [4]): 9.87%; E-64 Control activity slope, Mean, Plate 2 (Cruzipain [2]; E-64 final concentration 125 nM, Cruzipain control 210.84): 6.36 RFU/sec; E-64 Control activity slope, Mean, Plate 1 (Cruzipain [2]; E-64 final concentration 125 nM, Cruzipain control 893.31): 19.30 RFU/sec
5 | CC1(Oc2cncc(Cl)c2)CCN(Cc2cc3ccccc3[nH]2)C1 (stereo not shown) [TCMDC-143162] | – | – | positive hits | –
6 | CN1CCN(C(=O)N[C@@H](Cc2ccccc2)C(=O)N[C@H](/C=C/S(=O)(=O)c2ccccc2)CCc2ccccc2)CC1 [Compound K777, N-[(2 S)-1-[[(E,3 S)-1-(benzenesulfonyl)-5-phenylpent-1-en-3-yl]amino]-1-oxo-3-phenylpropan-2-yl]-4-methylpiperazine-1-carboxamide] | – | – | – | Efficacy in preclinical models of T. cruzi infection (T. cruzi): efficacious

More lines, main results first:

Row | IC50 (Cruzipain [1]) [µM] | Hill Slope (Cruzipain [1]) | Hit call by statistically robust cutoff (µC+ − 3 × SDC+) (Cruzipain [2]) | Structure (SMILES) | also measured
7 | 16.1 | −0,7998 | – | COc1cc(F)c2ncc(F)c(CCN3CC[C@H](NCc4cc5c(cn4)OCS5)[C@@H](O)C3)c2c1 [TCMDC-143510] | –
8 | – | – | positive hits | COc1ccc2nccc([C@H](O)CN3CC[C@H](NC(=O)c4ccc(Br)cc4)[C@@H](O)C3)c2n1 [TCMDC-143527] | –
9 | 3390 | −0,9825 | – | NC(N)=Nc1nc(-c2ccc(NC(N)=NCCN3CCCC3)cc2)cs1 [TCMDC-143640] | –
10 | – | – | positive hits | COc1ccc2ncc(=O)n(CCN3CC[C@H](NCc4ncc(Cl)c5[nH]ncc45)[C@H](O)C3)c2n1 [TCMDC-143373] | Behavior of dose-response curve (Cruzipain [3]): erratic behavior
11 | 0.0303 | −0,957 | – | CC(C)C[C@H](NC(=O)c1ccc(-c2ccccc2)o1)C(=O)NC1(C#N)CC1 [TCMDC-143393] | IC50 range against Cruzipain, in words (Cruzipain [3]): submicromolar range; Ki (tight-binding, suggested from IC50 in the order of the enzyme concentration) (Cruzipain [3]): 1 to 4 × 10^−8 M; IC50 against T. cruzi relative to T. brucei [5]: between one and two orders of magnitude higher
12 | 14.9 | −0,8108 | – | COc1ccc2ncc(Cl)c(CCN3CCC(NCc4cc5c(cn4)OCS5)C(O)C3)c2n1 (stereo not shown) [TCMDC-143513] | –
13 | 0.0678 | −0,9354 | – | COc1cc(OC)cc(C(=O)N[C@@H](CC(C)C)C(=O)NC2(C#N)CC2)c1 [TCMDC-143390] | IC50 range against Cruzipain, in words (Cruzipain [3]): submicromolar range; Ki (tight-binding, suggested from IC50 in the order of the enzyme concentration) (Cruzipain [3]): 1 to 4 × 10^−8 M
